In paper PMC12111648, “New Dimethoxyaryl-Sesquiterpene Derivatives with Cytotoxic Activity Against MCF-7 Breast Cancer Cells: From Synthesis to Topoisomerase I/II Inhibition and Cell Death Mechanism Studies” (International Journal of Molecular Sciences, 2025):
“Also recorded” adds a separate entry of the source.

Columns and labels:
[1] = test system: caspases-3/7 in MCF-7 cells; test: Caspase-Glo 3/7 assay; assay type: cell-based, human; settings: MCF-7, 50 μM, 24 h, versus control
Experimental: Since ROS levels were increased in the MCF-7 cancer cell line in response to the compounds, it is important to determine whether this effect is associated with the onset of apoptotic cell death. […] Cells were treated with the selected compounds at 50 μM for 24 h, incubated in situ with the Caspase-Glo 3/7 marker assay, and then analyzed in a luminometer.
The activity of caspase 3/7 in MCF-7 cells treated with the compounds was determined using a Caspase-Glo-3/7 Assay kit from Promega (UK). This assay is a homogenous and luminescent method that measures the activity of caspase-3 and -7, which are essential for apoptosis. MCF-7 cells (1 × 10^4 cells per well) were seeded in a 96-well plate and incubated overnight. The cells were then treated for 24 h with the compounds (50 µM) and a blank as a control. After treatment, the Caspase-Glo® 3/7 reagent was prepared according to the manufacturer’s instructions. Specifically, 100 μL of the reagent was added to 100 μL of culture medium containing the treated cells in each well, and the mixture was incubated for 1 h at room temperature in the dark. Luminescence was then measured using a luminometer (Berthold Sirius Single Tube Luminometer). The fold change in caspase activity was calculated by expressing the average luminescence of each treatment as a fold change with respect to the average luminescence of the negative control.
Figure 6 The effect of the compounds on caspases-3/7 activity in cells from the human breast cancer cell line MCF-7. Caspases-3/7 activity was determined in MCF-7 cells following treatment with the compounds (50 μM) for 24 h. The data are reported as the ratio of activity in treated cells vs. the control (1% ethanol), which were arbitrarily assigned a unitary value. * p < 0.05 versus control cells (Ctrl). The data are reported as the mean values ± S.D. of three different experiments with samples in triplicate.

[2] = test system: human topoisomerase II; test: TOP2 DNA relaxation / plasmid linearization assay; assay type: biochemical; settings: 20 μM
Experimental: The ability to relax DNA conformations is a central function of topoisomerase enzymes. Several studies have associated some proapoptotic compounds with the ability to inhibit topoisomerase enzymes. The ability of the selected compounds to inhibit TOP1 or TOP2 activity was determined. In this experiment, daunorubicin was used as a positive control for TOP1/2 inhibition, as previously reported. […] It is important to note the potential for cardiotoxicity associated with some TOP2 inhibitors, which highlights the relevance of assessing compound 14c’s interaction with TOP2B. […] Future studies should include assays to evaluate the specific activity of 14c against both TOP2A and TOP2B to provide a more comprehensive safety profile, as isoform-selective TOP2 inhibitors may offer a therapeutic advantage by reducing adverse effects.
Topoisomerase II-mediated DNA cleavage was assessed using a plasmid linearization assay adapted from previously described methods. Supercoiled plasmid DNA (200 ng final concentration) was incubated with purified human topoisomerase II (10 U) in the presence or absence of test agents or a positive control. Reactions were carried out in a total volume of 20 μL, composed of 2 μL of 10× topoisomerase II reaction buffer, an appropriate volume of compound or control, and nuclease-free water. ATP (final concentration adjusted from a 20 mM stock) was freshly added to the reaction buffer immediately prior to use. Reactions were initiated by the addition of topoisomerase II and incubated at 37 °C for 30 min. To terminate the reactions, 2 μL of 10% SDS was added directly to the tubes while still in the 37 °C water bath, followed by the addition of 1.5 μL of 250 mM tetrasodium EDTA (pH 8.0) and 2 μL of proteinase K solution (0.8 mg/mL). […]
Figure 7 The effect of sesquiterpene aryl esters on TOP1- and TOP2-induced DNA relaxation was assessed. (A) The TOP1 inhibition assay evaluated the compounds (10c, 11c, 12c, 13c, and 14c) at a concentration of 20 μM in a DNA relaxation assay. […]

Row | Compound | caspases-3/7 activity [1] | inhibition of TOP2-induced DNA relaxation [2]
1 | COc1ccc(/C=C2\C(C)=CCC3C(C)(C)CCC[C@]23C)cc1OC (stereo partly drawn) [Compound 13c, (4aS)-5-((E)-3,4-Dimethoxybenzylidene)-1,1,4a,6-tetramethyl-1,2,3,4,4a,5,8,8a-octahydronaphthalene] | considerably enhanced | no inhibition
2 | COc1cc2c(cc1OC)[C@]1(C)CCC3C(C)(C)CCC[C@]3(C)C1=C2 (stereo partly drawn) [Compound 14c, (6aR,11bS)-8,9-Dimethoxy-4,4,6a,11b-tetramethyl-2,3,4,4a,5,6,6a,11b-octahydro-1H-benzo[a]fluorene] | activated caspases-3/7; also recorded: considerably enhanced | selectively inhibited topoisomerase II; also recorded: modified the TOP2-induced DNA relaxation pattern
